Data as given in publication PMC6934184, “Selective DNA-PKcs inhibition extends the therapeutic index of localized radiotherapy and chemotherapy” (The Journal of Clinical Investigation, 2019).

Target: T1, CDK5 (Inactive) (Homo sapiens, UniProt Q00535)
T1 construct: purchased Thermo Fisher Scientific (Life Technologies) SelectScreen
Experiment: SelectScreen LanthaScreen
Type: binding
Settings: read-out: % displacement
Outline: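 SelectScreen broad panel; activity (Z'LYTE, Adapta) plus binding formats. ATP: Km app for CSF1R Z'LYTE; 10 for CAMK1 Adapta. Readout = % per kinase.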

T1 sequence (Q00535 whole entry): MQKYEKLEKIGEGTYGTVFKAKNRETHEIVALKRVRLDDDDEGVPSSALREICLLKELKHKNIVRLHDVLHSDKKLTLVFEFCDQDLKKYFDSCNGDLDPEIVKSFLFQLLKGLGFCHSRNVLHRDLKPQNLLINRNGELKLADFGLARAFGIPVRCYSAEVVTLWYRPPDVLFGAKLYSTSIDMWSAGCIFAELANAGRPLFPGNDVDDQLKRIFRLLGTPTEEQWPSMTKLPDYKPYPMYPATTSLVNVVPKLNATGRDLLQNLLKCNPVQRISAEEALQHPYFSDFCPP

In the case of CN(C(=O)CN1CCOCC1)c1ccc2sc3c(-c4cccc5c(=O)cc(N6CC7CCC(C6)O7)oc45)cccc3c2c1 [NU5455], the inhibition at 1 µM is reported as -2.1%.
